According to publication PMC7884382, “A Phase 1 study of RO6870810, a novel bromodomain and extra-terminal protein inhibitor, in patients with NUT carcinoma, other solid tumours, or diffuse large B-cell lymphoma” (British Journal of Cancer, 2020):

System: CD11b expression in monocytes
Assay: Pharmacodynamics: CD11b expression by flow cytometry
Format: in vivo, human
Description: For pharmacodynamic assessments, venous blood samples were collected and CD11b expression in monocytes was assessed as a surrogate marker of target engagement using flow cytometry before and after the first administration of RO6870810. Samples were obtained on cycle 1, day 1 (pre-dose and 2, 4 and 8 h post dose) and on cycle 1, day 15 (pre-dose and 2- and 4-h post dose). […] Formal hypothesis testing was not performed for this Phase 1 study. The sample size was based on a standard 3 + 3 dose-escalation design and was considered sufficient to evaluate the safety and clinical activity of RO6870810. AEs were coded using the current Medical Dictionary for Regulatory Activities, and safety and clinical efficacy were summarised using descriptive statistics. The 95% CI for the objective response rate was calculated using Wilson’s score method with continuity correction, and PFS was analysed using the Kaplan–Meier method. For the PK analyses, key exposure parameters such as maximum plasma concentration (Cmax) and area under the curve were summarised with descriptive statistics, and dose-exposure relationships were plotted graphically. Percentage changes in CD11b from baseline by flow cytometry were summarised with descriptive statistics and plotted over time. The relationship between percentage change from baseline in CD11b (average of three measurements taken pre-dose, at 2 h and at 4 h) on day 15 and the RO6870810 dose was plotted. To investigate the relationship between individual percentage changes in CD11b from baseline and RO6870810 concentration on day 15, the nonparametric regression LOESS curve fitting (locally weighted scatterplot smoothing) method was applied.

With `Cc1sc2c(c1C)C(c1ccc(Cl)cc1)=N[C@@H](CC(=O)NCCCN1CCN(C)CC1)c1nnc(C)n1-2` [RO6870810] the “Change in CD11b during the dosing period” value (across dose levels, with the exception of the 0.03-mg/kg dose) was “sustained decreases in CD11b”, the “Largest decreases in CD11b” value (at ≥0.2 mg/kg, cycle 1, day 15) was at least 50% and the “Doses at which mean decreases in CD11b occurred” value (cycle 1, day 15) was over 0.06 mg/kg. For the same molecule, the “RO6870810 concentration reaching a 50% reduction in CD11b” value (cycle 1, day 15, LOESS curve) was over 150 ng/mL.
